# Results from patent US12612424B2, “HPK1 inhibitors and uses thereof” (Regor Pharmaceuticals, Inc., priority 2019, dated 2026).
# pEC50: −log10 of the molar value.
# Test system: Human Pan T Cell (IL-2 release)
# Assay: IL2 released by human pan T cell upon anti-CD3/anti-CD28 stimulation (ELISA)
# Type: cell-based
# Details: human pan T cells; for maximal fold induction / pEC50 / EC (2-fold response): Homo sapiens, T-cell; for maximal fold induction / EC (2-fold response): 48 h; for maximal fold induction: response of IL-2 over DMSO control, anti-CD3/anti-CD28, 48 hours, ELISA, read-out: IL-2 Max Fold Response; for pEC50: IL-2 response, calculated with GraphPad Prism; for EC2x (nM) / EC (2-fold response): concentration of compound that gives 200% IL-2 response (2 folds) over DMSO control
# Text: For example, Example 5 describes such a functional assay for determining the effect of an HPK1 inhibitor on IL-2 & IFN-γ release upon stimulation of Pan T cells. The secreted IL-2 & IFN-γ can be measured/quantified by standard ELISA assay. Briefly, pan T cells can be isolated from peripheral blood (PB) mononuclear cells (MNCs), or PBMC, using commercially available kits, such as MACS (Miltenyl Biotec) Pan T isolation kit (Cat. No. 130-096-535). Primary human pan-T cells include CD4 and CD8 T cells as well as some gamma/delta T cell subsets. The pan-T cells can be isolated using the negative immunomagnetic separation technique without the use of columns.
# Isolated pan-T cells can be dispensed into 96-well plates at 100,000 cells/well, and stimulated with immobilized anti-CD3 antibody and soluable anti-CD28 antibody, or PMA/Ionomycin as the positive control (or culture media as the negative control). Different concentrations of test compounds can be added to the cells to assess the compound effect on cytokine secretion following TCR-stimulation/CD28 co-stimulation. Stimulated cells are incubated for 2 more days, before the supernatant (containing secreted cytokines by pan-T cells) is collected from each well for ELISA assay and quantitation of IL-2 and IFN-γ.
# Biology Example 8 Compound Efficacy Study on IL2 & IFN-γ Released by Human Pan T Cell
# This example is an assay method that can be used to determine compound effects on IL2 & IFN-γ release using pan T cells and ELISA assay format.
# 3. Procedures Procedures for Pan T isolation and Reagent preparation (Day 0): 1. Cell Growth Medium: • RPMI1640: ATCC, Cat #30-2001 • 10% FBS: Gibco, Cat #10099141 • 1% Pen-Strep: Gibco, Cat #15140122 • 1% Non-essential amino: Gibco, Cat #11140050 • Beta-Mercaptoethanol: Gibco, Cat #21985023 2. Pan T Isolation Buffer Preparation:
# Prepare a solution containing phosphate-buffered saline (PBS), pH 7.2, 0.5% bovine serum albumin (BSA), and 2 mM EDTA by diluting MACS® BSA Stock Solution (#130-091-376) 20 times with autoMACS® Rinsing Solution. Keep buffer at 4° C. Degas buffer before use, as air bubbles could block the column.
# 3. Thawing of Frozen PBMC • 1) Pre-heat medium at 37° C. water bath. • 2) Rapidly thaw cells in 37° C. water bath. • 3) Add the pre-warmed medium into 15 mL tube. Transfer cells to the tube. • 4) 300×g centrifuge for 8 min. (centrifuge increase 0, decrease 0). • 5) Wash the PBMC using Rinsing buffer. • 6) Centrifuge PBMC at 300×g for 8 min, wash it twice (centrifuge increase 9, decrease 1). • 7) Resuspend the cells with Pan T cells isolation buffer and count cells number. 4. Pan T Cells Isolation: Cell Staining with Microbead Cocktail • 1) Prepare cells and determine cell number. Filter cells by 70 μm cell strainer. • 2) Resuspend cell pellet in 40 μL of buffer per 10^7 total cells. • 3) Add 10 μL of Pan T Cell Biotin-Antibody Cocktail per 10^7 total cells. • 4) Mix well and incubate for 10 minutes in the refrigerator (ice). • 5) Add 30 μL of buffer per 10^7 total cells. • 6) Add 20 μL of Pan T Cell MicroBead Cocktail per 10^7 total cells. • 7) Mix well and incubate for 15 minutes in the refrigerator (ice). • 8) Proceed to subsequent magnetic cell separation. • Note: a. Work fast, keep cells cold, and use pre-cooled solutions (2-8° C.). b. Volumes for magnetic labeling given are for up to 10′ total cells. When working with fewer cells, use the same volumes as indicated. c. When working with higher cell numbers, scale up all reagent volumes and total volumes accordingly. d. For optimal performance it is important to obtain a single-cell suspension before magnetic labeling. Subsequent Manual Cell Separation: • 1) Place LS Column in the magnetic field of a suitable MACS Separator. For details refer to the respective MACS Column data sheet. • 2) Prepare column by rinsing with 3 mL of buffer. • 3) Apply cell suspension onto the column. Collect flow-through, which represents the enriched T cells. • 4) Wash column with 5 mL of buffer. […]
Structure (SMILES),maximal fold induction,pEC50,EC2x (nM),EC (2-fold response) [µM]
"COc1cc2c(cc1Nc1ncc(Cl)c(N3CCc4ccc(C(F)F)cc43)n1)CN(C)CC2 [Example 91, N-(5-chloro-4-(6-(difluoromethyl)indolin-1-yl)pyrimidin-2-yl)-6-methoxy-2-methyl-1,2,3,4-tetrahydroisoquinolin-7-amine]",< 2,,,
"COc1cc2c(cc1Nc1ncc(Cl)c(N3CCc4c(C(F)F)cccc43)n1)CN(C)CC2 [Example 92, N-(5-chloro-4-(4-(difluoromethyl)indolin-1-yl)pyrimidin-2-yl)-6-methoxy-2-methyl-1,2,3,4-tetrahydroisoquinolin-7-amine]",< 2,,,
COc1cc2c(cc1Nc1ncc(Cl)c(-n3cc(C4(O)COC4)c4ccccc43)n1)CN(C)CC2 [Example 93],< 2,,,
"CNC(=O)C1CN(c2nc(Nc3cc4c(cc3OC)CCN(C)C4)ncc2Cl)c2ccccc21 (centres unmarked) [Example 97, 1-(5-Chloro-2-((6-methoxy-2-methyl-1,2,3,4-tetrahydroisoquinolin-7-yl)amino)pyrimidin-4-yl)-N-methylindoline-3-carboxamide]",> 2,6.30 to 7.00,"++ (“++”, for higher values than “+++” but less than or equal to 1 μM)",
COc1cc2c(cc1Nc1ncc(Cl)c(N3CC(C(=O)NS(C)(=O)=O)c4ccccc43)n1)CN(C)CC2 (centres unmarked) [Example 98],< 2,,,
"COc1cc2c(cc1Nc1ncc(Cl)c(N3CC(C#N)c4ccccc43)n1)CN(C)CC2 (centres unmarked) [Example 99, 1-(5-Chloro-2-((6-methoxy-2-methyl-1,2,3,4-tetrahydroisoquinolin-7-yl)amino)pyrimidin-4-yl)indoline-3-carbonitrile]",< 2,,,
"COc1cc2c(cc1Nc1ncc(Cl)c(N3CC(c4nn[nH]n4)c4ccccc43)n1)CN(C)CC2 (centres unmarked) [Example 100, N-(4-(3-(2H-tetrazol-5-yl)indolin-1-yl)-5-chloropyrimidin-2-yl)-6-methoxy-2-methyl-1,2,3,4-tetrahydroisoquinolin-7-amine]",> 2,< 6.00,"+ (“+”, for greater than 1 μM)",
"COc1cc2c(cc1Nc1ncc(Cl)c(N3CC(C(=O)NO)c4ccccc43)n1)CN(C)CC2 (centres unmarked) [Example 101, 1-(5-Chloro-2-((6-methoxy-2-methyl-1,2,3,4-tetrahydroisoquinolin-7-yl)amino)pyrimidin-4-yl)-N-hydroxyindoline-3-carboxamide]",< 2,,,
COc1cc2c(cc1Nc1ncc(Cl)c(N3CC(C(=O)N(C)O)c4ccccc43)n1)CN(C)CC2 (centres unmarked) [Example 102],< 2,,,
"CONC(=O)C1CN(c2nc(Nc3cc4c(cc3OC)CCN(C)C4)ncc2Cl)c2ccccc21 (centres unmarked) [Example 103, 1-(5-Chloro-2-((6-methoxy-2-methyl-1,2,3,4-tetrahydroisoquinolin-7-yl)amino)pyrimidin-4-yl)-N-methoxyindoline-3-carboxamide]",< 2,,,
COc1cc2c(cc1Nc1ncc(Cl)c(N3CC(C(=O)O)c4cc(F)ccc43)n1)CN(C)CC2 (centres unmarked) [Example 104],> 2,6.30 to 7.00,,0.1 to 0.5
COc1cc2c(cc1Nc1ncc(Cl)c(N3CC(C(=O)O)c4ccc(F)cc43)n1)CN(C)CC2 (centres unmarked) [Example 105],> 2,≥ 7.00,,0.1 to 0.5
"COc1ccc2c(c1)N(c1nc(Nc3cc4c(cc3OC)CCN(C)C4)ncc1Cl)CC2C(=O)O (centres unmarked) [Example 107, 1-(5-Chloro-2-((6-methoxy-2-methyl-1,2,3,4-tetrahydroisoquinolin-7-yl)amino)pyrimidin-4-yl)-6-methoxyindoline-3-carboxylic acid]",< 2,,,
"COc1cc2c(cc1Nc1ncc(Cl)c(N3CC(C(=O)O)c4c(OC)cccc43)n1)CN(C)CC2 (centres unmarked) [Example 108, 1-(5-Chloro-2-((6-methoxy-2-methyl-1,2,3,4-tetrahydroisoquinolin-7-yl)amino)pyrimidin-4-yl)-4-methoxyindoline-3-carboxylic acid]",< 2,< 6.00,,
"COc1cc2c(cc1Nc1ncc(F)c(N3CC(C(=O)O)c4ccccc43)n1)CN(C)CC2 (centres unmarked) [Example 109, 1-(5-Fluoro-2-((6-methoxy-2-methyl-1,2,3,4-tetrahydroisoquinolin-7-yl)amino)pyrimidin-4-yl)indoline-3-carboxylic acid]",> 2,6.30 to 7.00,"++ (“++”, for higher values than “+++” but less than or equal to 1 μM)",
"COc1cc2c(cc1Nc1ncc(C#N)c(N3CC(C(=O)O)c4ccccc43)n1)CN(C)CC2 (centres unmarked) [Example 110, 1-(5-Cyano-2-((6-methoxy-2-methyl-1,2,3,4-tetrahydroisoquinolin-7-yl)amino)pyrimidin-4-yl)indoline-3-carboxylic acid]",< 2,,,
COC(=O)C1CN(c2nc(Nc3cc4c(cc3OC)CCN(C)C4)ncc2C(F)F)c2ccccc21 (centres unmarked) [Example 112],< 2,,,
COc1cc2c(cc1Nc1ncc(Cl)c(-n3nc(C(=O)O)c4ccccc43)n1)CN(C)CC2 [Example 113],< 2,< 6.00,,
"COC(=O)C1CN(c2nc(Nc3cc4c(cc3OC)CCN(C)C4)ncc2Cl)c2ccccc21 (centres unmarked) [Example 115, Methyl 1-(5-chloro-2-((6-methoxy-2-methyl-1,2,3,4-tetrahydroisoquinolin-7-yl)amino)pyrimidin-4-yl)indoline-3-carboxylate]",> 2,6.30 to 7.00,,0.1 to 0.5
COC(=O)C1(C)CN(c2nc(Nc3cc4c(cc3OC)CCN(C)C4)ncc2Cl)c2ccccc21 (centres unmarked) [Example 116],> 2,6.00 to 6.30,"++ (“++”, for higher values than “+++” but less than or equal to 1 μM)",
"COc1cc2c(cc1Nc1ncc(Cl)c(N3CC(C)(C(N)=O)c4ccccc43)n1)CN(C)CC2 (centres unmarked) [Example 120, 1-(5-Chloro-2-((6-methoxy-2-methyl-1,2,3,4-tetrahydroisoquinolin-7-yl)amino)pyrimidin-4-yl)-3-methylindoline-3-carboxamide]",< 2,,,
"COc1cc2c(cc1Nc1ncc(Cl)c(N3CC(C)(C#N)c4ccccc43)n1)CN(C)CC2 (centres unmarked) [Example 121, 1-(5-Chloro-2-((6-methoxy-2-methyl-1,2,3,4-tetrahydroisoquinolin-7-yl)amino)pyrimidin-4-yl)-3-methylindoline-3-carbonitrile]",< 2,,,
CNC(=O)C1(C)CN(c2nc(Nc3cc4c(cc3OC)CCN(C)C4)ncc2Cl)c2ccccc21 (centres unmarked) [Example 122],< 2,,,
COc1cc2c(cc1Nc1ncc(Cl)c(N3CC(C)(CO)c4ccccc43)n1)CN(C)CC2 (centres unmarked) [Example 123],< 2,6.30 to 7.00,,
COc1cc2c(cc1Nc1ncc(Cl)c(N3CC(C)(C(=O)O)c4cc(F)ccc43)n1)CN(C)CC2 (centres unmarked) [Example 125],> 2,≥ 7.00,,≤ 0.1
COc1cc2c(cc1Nc1ncc(Cl)c(N3CC(C)(C(=O)O)c4ccc(F)cc43)n1)CN(C)CC2 (centres unmarked) [Example 126],> 2,≥ 7.00,,≤ 0.1
